In patent US12673044B2, “Methods of treating borderline personality disorder” (ORYZON GENOMICS, S.A., priority 2019, dated 2026):

Columns and labels:
BPD patients [1] = assay: Phase IIa REIMAGINE trial, BPD cohort: safety and tolerability; type: in vivo, human; conditions: 1.2 mg/day oral free base, 5 days on/2 days off, 8 weeks; without significant adverse events
From the text: (§1) As part of a Phase IIa clinical trial (REIMAGINE trial, EudraCT number 2018-002140-88) to evaluate the safety, tolerability and efficacy of the KDM1A inhibitor vafidemstat to treat aggression in adult population in patients with different CNS disorders, a cohort of BPD patients was recruited and treated with vafidemstat for 8 weeks. A summary of the protocol of this clinical trial and results obtained in the BPD cohort are provided below.
(§2) Reimagine is a unicenter, open-label, 1-arm, 8-week clinical study to evaluate the efficacy, safety and tolerability of vafidemstat in aggression in adult population with Alzheimer's Disease (AD), Lewy Body Dementia (LBD), Adult attention Deficit Hyperactivity Disorder (ADHD), Borderline Personality Disorder (BPD) and Autism Spectrum Disorder (ASD). Six patients to be recruited per disorder.
Main objective of the trial: To evaluate the safety and tolerability of vafidemstat in adult population with Alzheimer's Disease (AD), Lewy Body Dementia (LBD), Adult attention deficit hyperactivity disorder (ADHD), Borderline Personality Disorder (BPD), Autism Spectrum Disorder (ASD)
Treatment: All patients received vafidemstat (as free base) at a dose of 1.2 mg/day, administered orally as a single capsule, in a 5 days on/2 days off schedule, during 8 weeks. […]

BPD patients [2] = assay: Phase IIa REIMAGINE trial, BPD cohort: efficacy by Borderline Personality Disorder Checklist (BPDCL); type: in vivo, human; conditions: 5 BPD patients, 1.2 mg/day oral free base, 5 days on/2 days off, 8 weeks, paired one-tail t-test
From the text: as §1, §2
Treatment: All patients received vafidemstat (as free base) at a dose of 1.2 mg/day, administered orally as a single capsule, in a 5 days on/2 days off schedule, during 8 weeks.
Six BPD patients were recruited, but there was one drop-out, and therefore the results as described herein correspond to the 5 BPD subjects eligible for analysis. A summary of the patients recruited in this BPD cohort (demographic data at baseline) can be found in Table 1.
Assessment of efficacy of treatment in BPD patients was performed using a validated scale specific for BPD, the Borderline Personality Disorder Checklist (BPDCL). The BPDCL is an instrument specifically designed to evaluate the subjective burden of BPD in the last month and also to rate BPD changes after therapeutic intervention. Originally developed in Dutch, the BPDCL has been subsequently translated into English, Spanish and other languages, and has been applied to clinical and non-clinical samples. […]
One can use the total sum score on the BPDCL (BPDCL Total Score) as an overall index of the subjective burden caused by BPD symptoms, or one can use sum scores for one or more of the separate BPD domains. […] Efficacy assessments were always measured prior to treatment administration on the corresponding visit day. […]

With `Nc1nnc(CN[C@@H]2C[C@H]2c2ccc(OCc3ccccc3)cc2)o1` [vafidemstat, 5-((((1R,2S)-2-(4-(benzyloxy)phenyl)cyclopropyl)amino)methyl)-1,3,4-oxadiazol-2-amine] the “Safety and tolerability of treatment in BPD patients” value (BPD patients [1]) was “safe and well tolerated”, the “Aggression-related BPDCL domains combined score (anger control, impulsivity, (para)suicide), change from visit 1 (baseline) to visit 7” value (BPD patients [2]; p=0.0029, FIG. 1) was “statistically significant reduction” and the “BPDCL Total score, change from visit 1 (baseline) to visit 7” value (BPD patients [2]; p=0.0048, FIG. 2) was “statistically significant reduction”. The “Non-aggression-related BPDCL domains combined score (abandonment, relationships, identity disturbance, affective instability, emptiness, dissociation), change from visit 1 (baseline) to visit 7” value (BPD patients [2]; p=0.0234, FIG. 3) was “statistically significant reduction”.
